Laboratory results from patent US12617779B2, “Self degradation-type CDK9 inhibitor prodrug and liposome encapsulating same” (Sumitomo Pharma Co., Ltd., priority 2021, dated 2026).

Legend:
[1] = Evaluation of conversion rate to active form in BALB/c mouse plasma (Experimental Example 3); format: in vitro ADME; settings: BALB/c, mouse, 0.2 μmol/L
Protocol: (§1) For Example 1, Example 2, Example 3, Example 4, Example 5, Example 6, Comparative Example 3, Comparative Example 4, Comparative Example 6, Comparative Example 7, Comparative Example 8, Comparative Example 9, Comparative Example 10 and Comparative Example 12, the attrition rate of the test compound and the conversion rate of the test compound to Alvocidib in human plasma and BALB/c mouse plasma were calculated by the following method.
(§2) The test compound was added to human plasma or BALB/c mouse plasma at a concentration of 0.2 μmol/L, and incubated at 37° C. The peak areas of the test compound and Alvocidib in the sample were determined by LC-MS/MS after 0, 30 and 60 minutes for Example 1, Example 2, Example 3, Example 4, Example 5 and Example 6, and after 0, 60 and 120 minutes for Comparative Example 3, Comparative Example 4, Comparative Example 6, Comparative Example 7, Comparative Example 8, Comparative Example 9, Comparative Example 10 and Comparative Example 12, and the attrition rate of the test compound and the conversion rate of the test compound to Alvocidib were calculated by the following formula. Attrition rate of test compound (%):(peak area of test compound in sample/peak area of test compound in sample after 0 minute)×100 Conversion rate to Alvocidib (%):(peak area of Alvocidib in sample/peak area of Alvocidib in reaction solution containing 0.2 μmol/L Alvocidib)×100
(§3) The measurement conditions for LC-MS/MS are as follows. • HPLC: Prominence system (Shimadzu Corporation) • MS/MS: • Example 1, Example 2, Example 3, Example 4, Example 5, Example 6, Comparative Example 8 (mouse), Comparative Example 10 (mouse) and Comparative Example 12 (mouse) • QTRAP5500 (SCIEX) • Comparative Example 6, Comparative Example 7, Comparative Example 8 (human), Comparative Example 9, Comparative Example 10 (human) and Comparative Example 12 (human) • 4000 QTRAP (SCIEX) • column: • other than Example 3 and Example 4 • Cadenza CD-C18, 3 μm, 50×2 mm (Imtakt Corporation) • Example 3 and Example 4 • Kinetex C8, 2.6 μm, 50×2.1 mm (Phenomenex) • column temperature: 40° C. • mobile phase: • A: water containing 0.1% formic acid • B: acetonitrile containing 0.1% formic acid • A/B (min): • Example 1, Example 2, Example 5, Example 6, Comparative Example 8 (mouse), Comparative Example 10 (mouse) and Comparative Example 12 (mouse) • 90/10(0)→40/60(5.0)→10/90(5.1)→10/90(6.5)→90/10(6.6)→90/10(8.0) • Example 3 and Example 4 • 86/14(0)→86/14(3.5)→10/90(5.5)→10/90(6.5)→86/14(6.6)→86/14(9.5) • Comparative Example 6, Comparative Example 7, Comparative Example 8 (human), Comparative Example 9, Comparative Example 10 (human) and Comparative Example 12 (human) • 90/10(0)→10/90(2.5)→10/90(3.5)→90/10(3.6)→90/10(5.0) • flow rate: 0.4 mL/min • detection: ESI (positive mode) • injection: 1 to 5 μL

[2] = Evaluation of conversion rate to active form in human plasma (Experimental Example 3); format: in vitro ADME; settings: human, 0.2 μmol/L
Protocol: as §1, §2, §3

[3] = Evaluation of conversion rate to active form in buffer solution (Experimental Example 1); format: physicochemical
Protocol: For Examples 1 to 16 and Comparative Examples 1 to 14, the attrition rate of the test compound and the conversion rate of the test compound to Alvocidib in a buffer solution were calculated by the following method.
Examples 1 to 16 and Comparative Examples 1 to 14 were each left in buffer solutions adjusted to pH 5.0, 5.5, 6.0, 6.5, 7.0 and 7.4, respectively, at a concentration of 25 umol/L at 37° C. After 0, 0.5, 1, 2 and 3 hours, the residual rates of the compounds of Examples […] and the production rate of Alvocidib were determined by HPLC.
The buffer solutions used at each pH are as follows. • pH 5.0: 50 mM citrate buffer solution (pH 5.0) • pH 5.5: 50 mM citrate buffer solution (pH 5.5) • pH 6.0: 50 mM phosphate buffer solution (pH 6.0) • pH 6.5: 50 mM phosphate buffer solution (pH 6.5) • pH 7.0: 50 mM phosphate buffer solution (pH 7.0) • pH 7.4: 50 mM phosphate buffer solution (pH 7.4)
The measurement conditions for HPLC are as follows.

CCOC(=O)O[C@@H]1CN(C)CC[C@@H]1c1c(O)cc(O)c2c(=O)cc(-c3ccccc3Cl)oc12 [Comparative Example 3, reference compound]
Production rate (%) of Alvocidib ([1]; 0 min): 1%
Residual rate (%) of test compound ([1]; 0 min): 100%
Production rate (%) of Alvocidib ([1]; 60 min): 7%
Residual rate (%) of test compound ([1]; 60 min): 90%
Production rate (%) of Alvocidib ([1]; 120 min): 13%
Residual rate (%) of test compound ([1]; 120 min): 78%
Production rate (%) of Alvocidib ([2]; 0 min): 1%
Residual rate (%) of test compound ([2]; 0 min): 100%
Production rate (%) of Alvocidib ([2]; 60 min): 1%
Residual rate (%) of test compound ([2]; 60 min): 78%
Production rate (%) of Alvocidib ([2]; 120 min): 2%
Residual rate (%) of test compound ([2]; 120 min): 101%
Production rate of Alvocidib ([3]; pH5.0, 0 hr): 1.2%
Residual rate ([3]; pH5.0, 0 hr): 90.6%
Production rate of Alvocidib ([3]; pH5.0, 0.5 hr): 1.2%
Residual rate ([3]; pH5.0, 0.5 hr): 90.6%
Production rate of Alvocidib ([3]; pH5.0, 1 hr): 1.2%
Residual rate ([3]; pH5.0, 1 hr): 90.7%
Production rate of Alvocidib ([3]; pH5.0, 2 hr): 1.3%
Residual rate ([3]; pH5.0, 2 hr): 90.2%
Production rate of Alvocidib ([3]; pH5.0, 3 hr): 1.2%
Residual rate ([3]; pH5.0, 3 hr): 90.6%
Production rate of Alvocidib ([3]; pH5.5, 0 hr): 1.1%
Residual rate ([3]; pH5.5, 0 hr): 90.9%
Production rate of Alvocidib ([3]; pH5.5, 0.5 hr): 1.1%
Residual rate ([3]; pH5.5, 0.5 hr): 90.9%
Production rate of Alvocidib ([3]; pH5.5, 1 hr): 1.2%
Residual rate ([3]; pH5.5, 1 hr): 90.6%
Production rate of Alvocidib ([3]; pH5.5, 2 hr): 1.2%
Residual rate ([3]; pH5.5, 2 hr): 89.9%
Production rate of Alvocidib ([3]; pH5.5, 3 hr): 1.1%
Residual rate ([3]; pH5.5, 3 hr): 90.7%
Production rate of Alvocidib ([3]; pH6.0, 0 hr): 1.1%
Residual rate ([3]; pH6.0, 0 hr): 91.0%
Production rate of Alvocidib ([3]; pH6.0, 0.5 hr): 1.2%
Residual rate ([3]; pH6.0, 0.5 hr): 90.8%
Production rate of Alvocidib ([3]; pH6.0, 1 hr): 1.1%
Residual rate ([3]; pH6.0, 1 hr): 90.9%
Production rate of Alvocidib ([3]; pH6.0, 2 hr): 1.2%
Residual rate ([3]; pH6.0, 2 hr): 90.0%
Production rate of Alvocidib ([3]; pH6.0, 3 hr): 1.2%
Residual rate ([3]; pH6.0, 3 hr): 90.9%
Production rate of Alvocidib ([3]; pH6.5, 0 hr): 1.1%
Residual rate ([3]; pH6.5, 0 hr): 90.8%
Production rate of Alvocidib ([3]; pH6.5, 0.5 hr): 1.1%
Residual rate ([3]; pH6.5, 0.5 hr): 90.9%
Production rate of Alvocidib ([3]; pH6.5, 1 hr): 1.2%
Residual rate ([3]; pH6.5, 1 hr): 90.8%
Production rate of Alvocidib ([3]; pH6.5, 2 hr): 1.3%
Residual rate ([3]; pH6.5, 2 hr): 89.9%
Production rate of Alvocidib ([3]; pH6.5, 3 hr): 1.2%
Residual rate ([3]; pH6.5, 3 hr): 90.8%
Production rate of Alvocidib ([3]; pH7.0, 0 hr): 1.1%
Residual rate ([3]; pH7.0, 0 hr): 91.0%
Production rate of Alvocidib ([3]; pH7.0, 0.5 hr): 1.2%
Residual rate ([3]; pH7.0, 0.5 hr): 91.0%
Production rate of Alvocidib ([3]; pH7.0, 1 hr): 1.2%
Residual rate ([3]; pH7.0, 1 hr): 90.9%
Production rate of Alvocidib ([3]; pH7.0, 2 hr): 1.4%
Residual rate ([3]; pH7.0, 2 hr): 89.8%
Production rate of Alvocidib ([3]; pH7.0, 3 hr): 1.3%
Residual rate ([3]; pH7.0, 3 hr): 90.8%
Production rate of Alvocidib ([3]; pH7.4, 0 hr): 1.1%
Residual rate ([3]; pH7.4, 0 hr): 91.0%
Conversion to Alvocidib at pH 7.4 ([3]; pH 7.4, 37° C., up to 3 hours): slowly converted to Alvocidib
Production rate of Alvocidib ([3]; pH7.4, 0.5 hr): 1.2%
Residual rate ([3]; pH7.4, 0.5 hr): 91.0%
Production rate of Alvocidib ([3]; pH7.4, 1 hr): 1.2%
Residual rate ([3]; pH7.4, 1 hr): 91.0%
Production rate of Alvocidib ([3]; pH7.4, 2 hr): 1.4%
Residual rate ([3]; pH7.4, 2 hr): 90.1%
Production rate of Alvocidib ([3]; pH7.4, 3 hr): 1.3%
Residual rate ([3]; pH7.4, 3 hr): 90.8%
